In ChEMBL document CHEMBL1201862, “PubChem BioAssay data set” (2004):
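Tested at 5 concentrations; 48 h exposure; 96-well plates; endpoints linearly interpolated, else capped at highest concentration. GI50 is the concentration that inhibits growth by half.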 The source made the active and inactive calls. Rule as the data show it: active = GI50 up to about 1.1 µM and inactive = higher.

Experiments:
Experiment in all cases: inhibition of tumour cell growth, NCI panel, 48 h
MDA-MB-435 = test system: MDA-MB-435
CCRF-CEM = test system: CCRF-CEM
SK-MEL-2 = test system: SK-MEL-2
UACC-257 = test system: UACC-257
HL-60 = test system: HL-60
CAKI-1 = test system: CAKI-1
MDA-N = test system: MDA-N
NCI-H23 = test system: NCI-H23
A498 = test system: A498
NCI-H522 = test system: NCI-H522
MOLT-4 = test system: MOLT-4
HT-29 = test system: HT-29
MDA-MB-231 = test system: MDA-MB-231
OVCAR-8 = test system: OVCAR-8
OVCAR-5 = test system: OVCAR-5
SNB-19 = test system: SNB-19
DU-145 = test system: DU-145
LOX IMVI = test system: LOX IMVI
NCI/ADR-RES = test system: NCI/ADR-RES
SK-MEL-5 = test system: SK-MEL-5

| SMILES | GI50 (MDA-MB-435) | GI50 (CCRF-CEM) | GI50 (SK-MEL-2) | GI50 (UACC-257) | GI50 (HL-60) | GI50 (CAKI-1) | GI50 (MDA-N) | GI50 (NCI-H23) | GI50 (A498) | GI50 (NCI-H522) | GI50 (MOLT-4) | GI50 (HT-29) | GI50 (MDA-MB-231) | GI50 (OVCAR-8) | GI50 (OVCAR-5) | GI50 (SNB-19) | GI50 (DU-145) | GI50 (LOX IMVI) | GI50 (NCI/ADR-RES) | GI50 (SK-MEL-5) |
| --- | --- | --- | --- | --- | --- | --- | --- | --- | --- | --- | --- | --- | --- | --- | --- | --- | --- | --- | --- | --- |
| CCC1C(c2cc(OC)c(OC)c(OC)c2)c2cc3c(cc2OC1N1CCCC1)OCO3 (configuration not stated) | 0.277 µM (active) | 1.16 µM (inactive) | 1.98 µM (inactive) | 4.59 µM (inactive) | 1.57 µM (inactive) | 0.598 µM (active) | 0.231 µM (active) | 4.46 µM (inactive) | 3.15 µM (inactive) | 2.29 µM (inactive) | 1.95 µM (inactive) | 1.37 µM (inactive) | 3.83 µM (inactive) | 4.07 µM (inactive) | 8.49 µM (inactive) | 2.74 µM (inactive) | 2.37 µM (inactive) | 2.57 µM (inactive) | 1.41 µM (inactive) | 0.678 µM (active) |
| CC(C)CCC1(CCN)C(=O)NC(=O)NC1=O | > 100 µM (inactive) | 19.6 µM (inactive) | > 100 µM (inactive) | > 100 µM (inactive) | 38.2 µM (inactive) | > 100 µM (inactive) | > 100 µM (inactive) | > 100 µM (inactive) | > 100 µM (inactive) | > 100 µM (inactive) | 16.2 µM (inactive) | > 100 µM (inactive) | > 100 µM (inactive) | > 100 µM (inactive) | > 100 µM (inactive) | > 100 µM (inactive) | > 100 µM (inactive) | > 100 µM (inactive) | > 100 µM (inactive) | > 100 µM (inactive) |
| COC(=O)c1ccccc1CC1Cc2ccc3c(c2C1=O)CCCC3 (configuration not stated) | 34.6 µM (inactive) | 23.8 µM (inactive) | 24.7 µM (inactive) | 29.5 µM (inactive) | 12.9 µM (inactive) | 24 µM (inactive) | 35.8 µM (inactive) | 35.3 µM (inactive) | 52.8 µM (inactive) | 22.6 µM (inactive) | 10.4 µM (inactive) | 20.4 µM (inactive) | 29.7 µM (inactive) | 43.3 µM (inactive) | > 100 µM (inactive) | 87.7 µM (inactive) | 48.4 µM (inactive) | 28.8 µM (inactive) | 23.6 µM (inactive) | 15.5 µM (inactive) |
| CC(=O)Nc1ccc(C(=O)N[C@@H]2C(=O)N3[C@@H]2SC(C)(C)[C@@H]3C(=O)O)cn1 | > 100 µM (inactive) | > 100 µM (inactive) | > 100 µM (inactive) | > 100 µM (inactive) | > 100 µM (inactive) | > 100 µM (inactive) | > 100 µM (inactive) | > 100 µM (inactive) | > 100 µM (inactive) | – | > 100 µM (inactive) | > 100 µM (inactive) | > 100 µM (inactive) | > 100 µM (inactive) | > 100 µM (inactive) | > 100 µM (inactive) | > 100 µM (inactive) | > 100 µM (inactive) | > 100 µM (inactive) | > 100 µM (inactive) |
| O=C(NC(CS)C(=O)O)c1c2ccccc2nc2ccccc12 (configuration not stated) | 2.81 µM (inactive) | 61.7 µM (inactive) | 47.8 µM (inactive) | 13.7 µM (inactive) | 0.16 µM (active) | > 100 µM (inactive) | 14.5 µM (inactive) | 11.2 µM (inactive) | > 100 µM (inactive) | 31.1 µM (inactive) | 22.2 µM (inactive) | 14.5 µM (inactive) | 76.6 µM (inactive) | 49.1 µM (inactive) | > 100 µM (inactive) | 23.7 µM (inactive) | 30.7 µM (inactive) | 21.5 µM (inactive) | 67.9 µM (inactive) | 3.28 µM (inactive) |
| Cc1cc2nc(O)c(C(C)C(=O)c3ccc(Cl)cc3)nc2cc1C (configuration not stated) | 20.1 µM (inactive) | 26.7 µM (inactive) | > 100 µM (inactive) | 16.6 µM (inactive) | 21.2 µM (inactive) | 81.7 µM (inactive) | 17.8 µM (inactive) | 46.3 µM (inactive) | 23.1 µM (inactive) | 31.6 µM (inactive) | 27.7 µM (inactive) | 22.1 µM (inactive) | 36.7 µM (inactive) | 32.5 µM (inactive) | 56.1 µM (inactive) | 56.4 µM (inactive) | 53.1 µM (inactive) | 35.6 µM (inactive) | 28.6 µM (inactive) | 38.1 µM (inactive) |
| Nc1ccc(CCN2CCN(CCCc3ccccc3)CC2)cc1 | > 100 µM (inactive) | 48.2 µM (inactive) | > 100 µM (inactive) | 62.4 µM (inactive) | 26.6 µM (inactive) | > 100 µM (inactive) | > 100 µM (inactive) | 79.4 µM (inactive) | > 100 µM (inactive) | 39.2 µM (inactive) | 50.4 µM (inactive) | 16.2 µM (inactive) | 60.8 µM (inactive) | 47.1 µM (inactive) | > 100 µM (inactive) | > 100 µM (inactive) | 70.3 µM (inactive) | 63.7 µM (inactive) | 86.9 µM (inactive) | 29.6 µM (inactive) |
| Cc1ccc(S(=O)(=O)N/N=C/C(Br)=C(/Br)C(=O)O)cc1 | 4.43 µM (inactive) | 1.42 µM (inactive) | 14.6 µM (inactive) | 12.1 µM (inactive) | 1.93 µM (inactive) | 5.64 µM (inactive) | 4.69 µM (inactive) | 6.1 µM (inactive) | 16.4 µM (inactive) | 1.99 µM (inactive) | 0.826 µM (active) | 5.16 µM (inactive) | 14.8 µM (inactive) | 2.6 µM (inactive) | > 19.7 µM (inactive) | 13.8 µM (inactive) | 12.2 µM (inactive) | 3.03 µM (inactive) | 3.69 µM (inactive) | 11.7 µM (inactive) |
| COc1ccc(C2NC(=O)Nc3c2c(=O)oc2c3ccc3ccccc32)cc1 (configuration not stated) | 56.5 µM (inactive) | 37 µM (inactive) | 26.4 µM (inactive) | > 100 µM (inactive) | 70.8 µM (inactive) | 52.8 µM (inactive) | 59.2 µM (inactive) | 52.6 µM (inactive) | 31.4 µM (inactive) | 53.2 µM (inactive) | 62.8 µM (inactive) | 77.6 µM (inactive) | 54 µM (inactive) | 66.8 µM (inactive) | > 100 µM (inactive) | 33.2 µM (inactive) | > 100 µM (inactive) | 74.6 µM (inactive) | 69.5 µM (inactive) | 71.6 µM (inactive) |
| COc1ccc(-c2cc(-c3ccc(Nc4ccnc5cc(Cl)ccc45)cc3)[nH]c(=O)c2C#N)c2ccccc12 | 1.87 µM (inactive) | 1.09 µM (active) | 14.1 µM (inactive) | 24.9 µM (inactive) | 3.03 µM (inactive) | 9.46 µM (inactive) | 2.01 µM (inactive) | 20.3 µM (inactive) | 23.3 µM (inactive) | 1.79 µM (inactive) | 2.13 µM (inactive) | 2 µM (inactive) | 3.29 µM (inactive) | 2.3 µM (inactive) | 41.3 µM (inactive) | 3.39 µM (inactive) | 5.33 µM (inactive) | 1.36 µM (inactive) | > 100 µM (inactive) | 13.1 µM (inactive) |
| O=C1/C(=C(/Br)I)c2ccccc2-c2ccccc21 | 8.51 µM (inactive) | 2.16 µM (inactive) | 8.73 µM (inactive) | 6.01 µM (inactive) | 0.248 µM (active) | 5.57 µM (inactive) | 2.95 µM (inactive) | 18.1 µM (inactive) | 16.4 µM (inactive) | 2.09 µM (inactive) | 2.21 µM (inactive) | 6.55 µM (inactive) | 6.14 µM (inactive) | 16.9 µM (inactive) | 11.9 µM (inactive) | 13.9 µM (inactive) | 16.3 µM (inactive) | 5.3 µM (inactive) | 9.02 µM (inactive) | 16 µM (inactive) |
| C#CCN1CCN(C(=S)N/N=C(\C)c2ccccn2)CC1 | 1.49 µM (inactive) | 0.01 µM (active) | 0.262 µM (active) | < 0.014 µM (active) | 0.01 µM (active) | 1.42 µM (inactive) | 1.46 µM (inactive) | 0.01 µM (active) | 2.15 µM (inactive) | 0.0552 µM (active) | 0.01 µM (active) | 0.115 µM (active) | 1.28 µM (inactive) | 0.01 µM (active) | 0.069 µM (active) | 2.99 µM (inactive) | 1.48 µM (inactive) | 0.01 µM (active) | 0.01 µM (active) | 1.36 µM (inactive) |
| CC1=CC(=O)C(C(O)(C(F)(F)F)C(F)(F)F)C(C)(C)C1 (configuration not stated) | > 10 µM (inactive) | > 10 µM (inactive) | > 10 µM (inactive) | > 10 µM (inactive) | > 10 µM (inactive) | > 10 µM (inactive) | > 10 µM (inactive) | > 10 µM (inactive) | > 10 µM (inactive) | > 10 µM (inactive) | > 10 µM (inactive) | > 10 µM (inactive) | > 10 µM (inactive) | > 10 µM (inactive) | – | > 10 µM (inactive) | > 10 µM (inactive) | > 10 µM (inactive) | > 10 µM (inactive) | > 10 µM (inactive) |
| O=C(O)Cc1cccc2c(=O)c3ccccc3oc12 | > 100 µM (inactive) | > 100 µM (inactive) | 27.3 µM (inactive) | > 100 µM (inactive) | > 100 µM (inactive) | > 100 µM (inactive) | > 100 µM (inactive) | > 100 µM (inactive) | > 100 µM (inactive) | 48.5 µM (inactive) | > 100 µM (inactive) | > 100 µM (inactive) | > 100 µM (inactive) | > 100 µM (inactive) | – | > 100 µM (inactive) | > 100 µM (inactive) | > 100 µM (inactive) | > 100 µM (inactive) | > 100 µM (inactive) |
